Test results: the supplement of paper PMC10307832

Columns and labels:
Test in all cases: relative viability (nuclei count vs DMSO), 5 days (fraction); higher = more cells survive
Midostaurin + Dasatinib = compound: CO[C@@H]1[C@H](N(C)C(=O)c2ccccc2)C[C@H]2O[C@]1(C)n1c3ccccc3c3c4c(c5c6ccccc6n2c5c31)C(=O)NC4 [Midostaurin] + Cc1nc(Nc2ncc(C(=O)Nc3c(C)cccc3Cl)s2)cc(N2CCN(CCO)CC2)n1 [Dasatinib] (partner 0.075 µM)
Procedure, shortened: (§1)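 Five library-drug doses in √10 steps were combined with a fixed anchor-drug dose, or a single drug was given alone, by pin tool to lung cancer cell lines in 1536-well plates the day after seeding. Nuclei were stained and counted after 5 days. Relative viability is the nuclei count in treated wells over that in vehicle wells, taken as the median of duplicate plates.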

Midostaurin + Decitabine = compound: CO[C@@H]1[C@H](N(C)C(=O)c2ccccc2)C[C@H]2O[C@]1(C)n1c3ccccc3c3c4c(c5c6ccccc6n2c5c31)C(=O)NC4 [Midostaurin] + Nc1ncn([C@H]2C[C@H](O)[C@@H](CO)O2)c(=O)n1 [Decitabine] (partner 2 µM)
Procedure, shortened: as §1

[1] = compound: COc1cc(-c2nn([C@H]3CC[C@H](N4CCN(C(C)=O)CC4)CC3)c3ncnc(N)c23)ccc1NC(=O)c1cc2ccccc2n1C + CC(=O)Nc1cccc(-n2c(=O)n(C3CC3)c(=O)c3c(Nc4ccc(I)cc4F)n(C)c(=O)c(C)c32)c1 [Trametinib] (partner 0.02 µM)
Procedure, shortened: as §1

Midostaurin + Crizotinib = compound: CO[C@@H]1[C@H](N(C)C(=O)c2ccccc2)C[C@H]2O[C@]1(C)n1c3ccccc3c3c4c(c5c6ccccc6n2c5c31)C(=O)NC4 [Midostaurin] + C[C@@H](Oc1cc(-c2cnn(C3CCNCC3)c2)cnc1N)c1c(Cl)ccc(F)c1Cl [Crizotinib] (partner 1 µM)
Procedure, shortened: as §1

Midostaurin + OSI-027 = compound: CO[C@@H]1[C@H](N(C)C(=O)c2ccccc2)C[C@H]2O[C@]1(C)n1c3ccccc3c3c4c(c5c6ccccc6n2c5c31)C(=O)NC4 [Midostaurin] + COc1cccc2cc(-c3nc([C@H]4CC[C@H](C(=O)O)CC4)n4ncnc(N)c34)[nH]c12 [OSI-027] (partner 0.5 µM)
Procedure, shortened: as §1

Row | Cell Line | relative viability (Midostaurin + Dasatinib; first compound 0.01 µM) | relative viability (Midostaurin + Dasatinib; first compound 0.03162 µM) | relative viability (Midostaurin + Dasatinib; first compound 0.1 µM) | relative viability (Midostaurin + Dasatinib; first compound 0.3162 µM) | relative viability (Midostaurin + Decitabine; first compound 0.01 µM) | relative viability (Midostaurin + Decitabine; first compound 0.03162 µM) | relative viability (Midostaurin + Decitabine; first compound 0.1 µM) | relative viability (Midostaurin + Decitabine; first compound 0.3162 µM) | relative viability ([1]; first compound 0.0128 µM) | relative viability ([1]; first compound 0.04048 µM) | relative viability ([1]; first compound 0.128 µM) | relative viability ([1]; first compound 1.28 µM) | relative viability (Midostaurin + Crizotinib; first compound 0.01 µM) | relative viability (Midostaurin + Crizotinib; first compound 0.03162 µM) | relative viability (Midostaurin + Crizotinib; first compound 0.1 µM) | relative viability (Midostaurin + Crizotinib; first compound 0.3162 µM) | relative viability (Midostaurin + OSI-027; first compound 0.01 µM) | relative viability (Midostaurin + OSI-027; first compound 0.03162 µM) | relative viability (Midostaurin + OSI-027; first compound 0.1 µM) | relative viability (Midostaurin + OSI-027; first compound 0.3162 µM)
1 | LK-2 | 0.333 | 0.251 | 0.393 | 0.501 | 0.262 | 0.272 | 0.405 | 0.299 | 0.978 | 0.399 | 0.577 | 0.47 | 0.243 | 0.235 | 0.233 | 0.17 | 0.232 | 0.232 | 0.248 | 0.197
2 | HCC-366 | 0.634 | 0.583 | 0.537 | 0.638 | 0.383 | 0.364 | 0.325 | 0.298 | 0.309 | 0.281 | 0.305 | 0.179 | 0.504 | 0.505 | 0.445 | 0.522 | 0.961 | 0.954 | 0.567 | 0.811
3 | BEN | 0.371 | 0.32 | 0.405 | 0.379 | 0.732 | 0.712 | 0.685 | 0.806 | 1.07 | 0.97 | 0.953 | 0.838 | 1.12 | 0.889 | 1.17 | 0.935 | 0.324 | 0.273 | 0.267 | 0.32
4 | NCI-H23 | 0.88 | 0.659 | 0.559 | 0.523 | 0.302 | 0.368 | 0.308 | 0.249 | 0.405 | 0.25 | 0.281 | 0.226 | 0.479 | 0.512 | 0.355 | 0.41 | 0.562 | 0.592 | 0.524 | 0.513
5 | 201T | 0.557 | 0.533 | 0.562 | 0.558 | 0.878 | 0.91 | 0.83 | 0.867 | 0.743 | 0.727 | 0.695 | 0.585 | 1.07 | 1.01 | 1.01 | 1.05 | 0.725 | 0.787 | 0.751 | 0.818
6 | NCI-H2170 | 0.572 | 0.55 | 0.512 | 0.735 | 0.5 | 0.495 | 0.441 | 0.456 | 0.992 | 0.797 | 0.919 | 0.876 | 1.18 | 1.24 | 1.15 | 1.29 | 0.697 | 0.681 | 0.683 | 0.79
7 | NCI-H460 | 0.576 | 0.493 | 0.478 | 0.553 | 0.491 | 0.526 | 0.53 | 0.638 | 0.111 | 0.0655 | 0.148 | 0.058 | 0.903 | 0.75 | 0.898 | 0.787 | 0.513 | 0.62 | 0.722 | 0.665
8 | NCI-H661 | 0.882 | 0.806 | 0.852 | 0.737 | 0.622 | 0.611 | 0.598 | 0.596 | 0.474 | 0.469 | 0.557 | 0.506 | 0.931 | 0.928 | 0.918 | 0.982 | 0.74 | 0.638 | 0.719 | 0.607
9 | HCC-15 | 0.735 | 0.655 | 0.657 | 0.635 | 0.657 | 0.669 | 0.614 | 0.585 | 0.421 | 0.269 | 0.394 | 0.294 | 0.842 | 0.829 | 0.841 | 0.847 | 0.758 | 0.624 | 0.698 | 0.717
10 | LCLC-103H | 0.545 | 0.456 | 0.389 | 0.416 | 0.712 | 0.742 | 0.752 | 0.757 | 0.717 | 0.58 | 0.583 | 0.664 | 1.05 | 1.01 | 0.982 | 1.02 | 0.506 | 0.417 | 0.425 | 0.465
11 | NCI-H441 | 0.677 | 0.533 | 0.552 | 0.405 | 0.249 | 0.237 | 0.221 | 0.23 | 0.438 | 0.463 | 0.407 | 0.336 | 0.778 | 0.807 | 0.596 | 0.764 | 0.629 | 0.525 | 0.405 | 0.529
12 | EPLC-272H | 0.381 | – | 0.422 | 0.351 | 0.35 | 0.332 | 0.356 | 0.345 | 0.331 | 0.205 | 0.278 | 0.24 | 0.875 | 0.998 | 1.07 | 0.926 | 0.301 | – | 0.289 | 0.305
